Assay in all cases: NCI anticancer screen, dose series, 48 h
Assay [1] has as its system A498 renal.
The subject of assay [2] is HL-60(TB) leukemia.
Assay [3] has as its system RXF 393 renal.
For assay [4], the system named is SK-MEL-5 melanoma.
For assay [5], the system named is SNB-19 CNS.
Assay [6] deals with SNB-75 CNS.
In assay [7] the test system is TK-10 renal.
Assay [8] relates to UACC-257 melanoma.
For assay [9], the system named is HCC-2998 colon.
The test system of assay [10] is SR leukemia.

Several values for one entry are separate records, joined by “and”; a condition that tells them apart may be missing. Equal entries are not always repeated.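 Exposure lasted 48 hours, with cells grown in 96-well plates and compounds tested at five concentrations. The concentration for 50% growth inhibition is given as GI50. TGI is the concentration that stops growth completely.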

Consider `O=S(O)CCCCSSCC(O)C(O)CSSCCCCS(=O)O` (centres undefined), for which the TGI in assay [1] is more than 100 µM; in assay [2], 53.9 µM and > 100 µM; in assay [3] it was 38 µM and 89.8 µM; in [4] it was 18.1 µM and 26 µM; in assay [5] it was more than 100 µM; in [6], > 100 µM and 88.7 µM. Besides, the TGI in assay [7] was more than 100 µM; in assay [8], 21.6 µM and 26.7 µM. The GI50 in assay [4] is 4.97 µM and 11.2 µM.

For `CC1=CC(/C=C(\C)CCCc2ccoc2)C2(OC(=O)C(C)=C2O)[C@H]2C1CC[C@@H]2C` (some centres undefined), the TGI in assay [1] was 49.2 µM; in [9] it was 74.2 µM; in assay [3], 60.5 µM; in assay [4] it was 46.4 µM; in assay [5], 42.6 µM; in assay [6], more than 100 µM. Moreover, the TGI in assay [7] and in assay [8] was more than 100 µM in each case.

In the case of `CC1OC2CC(=O)OC2C2=C1C(=O)c1c(O)cccc1C2=O` (centres undefined), the GI50 in assay [1] is 0.348 µM; in assay [9] it was 0.236 µM; in [3], 0.0195 µM; in assay [4] it was 0.124 µM; in [5] it was 1.08 µM; in assay [6], 0.13 µM. Moreover, the results for the GI50 in assay [7] and in assay [8] were 0.0795 µM and 0.0748 µM, respectively. The TGI in assay [1] was 1.38 µM; in assay [9] it was 0.558 µM; in assay [3], 0.0499 µM; in [4], 0.251 µM; in assay [5], 2.48 µM; in [6], 0.317 µM. The results for the TGI in [7] and in assay [8] were 0.283 µM and 0.217 µM, respectively.

In the case of `CCCCN(CCCC)CC(C(=O)Nc1ccc([N+](=O)[O-])cc1[N+](=O)[O-])/C(C)=N\NC(=S)NN` (centres undefined), the TGI in [1], in assay [9], in assay [2], in assay [3], in assay [4] and in assay [6] was more than 100 µM in each case. The TGI in assay [7] and in assay [8] was more than 100 µM throughout.

For the molecule `O=C1CN=C(C[N+](=O)[O-])c2ccccc21`, the TGI in [1], in [2], in [4], in assay [5], in assay [6] and in assay [10] was more than 100 µM each time. Besides, the TGI in [8] is more than 100 µM.

As for `CNC(=S)NC1CCCCC1NC(=S)NC` (centres undefined), the TGI in [9], in [2], in assay [4], in assay [5], in assay [6] and in [10] was more than 100 µM throughout.

For the molecule `CC(C)(C)[SiH]12(OC(C(F)(F)F)(C(F)(F)F)c3ccccc31)OC(C(F)(F)F)(C(F)(F)F)c1ccccc12`, the TGI in assay [9] worked out at 12.9 µM; in assay [4], 22.1 µM; in [5], 13.1 µM; in assay [6], 7.18 µM; in [10], 6.38 µM; in assay [7], 26.3 µM. The TGI in assay [8] stood at 27.7 µM.

Turning to `OCCN1CN(CCO)CN(c2nc(N3CN(CCO)CN(CCO)C3)nc(N3CN(CCO)CN(CCO)C3)n2)C1`, the GI50 is 1.61 ng/mL in assay [1]; 0.891 ng/mL in assay [4]; 1.08 ng/mL in assay [5]; 2.05 ng/mL in assay [7]; 1.42 ng/mL in [8]. For the same molecule, the TGI in assay [1] came to 4.96 ng/mL; in assay [4] it was 1.74 ng/mL; in [5] it was 63 ng/mL; in [10], 0.63 ng/mL; in assay [7], 18.3 ng/mL; in [8], 3.14 ng/mL.

Regarding `CNCCNc1c2c(c(NCCNC)c3c(CN(C)C)c[nH]c13)C(=O)c1ccccc1C2=O`, the GI50 in assay [1] was 1.41 µM; in assay [9], 1.36 µM; in assay [2] it was 4.14 µM; in assay [3], 2.5 µM; in [4], 2.98 µM; in [5], 12.2 µM. Also, the values for the GI50 in assay [6], in [7] and in assay [8] were 7.14 µM, 7.11 µM and 20.1 µM, respectively. The TGI in assay [1] is 6.27 µM; in assay [9], 5.37 µM; in assay [2] it was more than 100 µM; in [3] it was 11 µM; in assay [4], 14.2 µM; in assay [5] it was more than 41.7 µM. For the same molecule, the TGI came out at 22 µM in assay [6], 15.9 µM in assay [7] and 45.7 µM in assay [8].

Consider `O=[n+]1c2c(n([O-])c3ccccc31)CCCCCCCCCC2`, for which the TGI in assay [2], in assay [5], in assay [6], in [10], in assay [7] and in [8] was more than 100 µM in each case.

As to `Cc1ccccc1N1C(=O)/C(=C/c2ccc(N(CCC#N)CCC#N)cc2)N=C1c1cc([N+](=O)[O-])ccc1Cl`, the TGI in [1], in assay [9], in assay [2], in assay [4], in [5] and in assay [6] was more than 100 µM each time. Moreover, the TGI in assay [10] and in [8] was more than 100 µM throughout.

Turning to `C=CC1CC12C(=O)C1OC2(C)C2C(=O)c3cc4ccccc4cc3C(=O)C12` (centres undefined), the GI50 is 24.6 µM in [9]; 24.7 µM in assay [2]; 11.1 µM in assay [3]; 56.7 µM in [5]; 35.5 µM in [6]; 31.8 µM in [7]. For the same molecule, the GI50 in assay [8] was 21.5 µM. Also, the TGI in [9] is more than 100 µM; in assay [2], 65.3 µM; in assay [3], 38 µM; in assay [5], more than 100 µM; in assay [6] it was more than 100 µM; in assay [7], 97.1 µM. In assay [8], this molecule showed a TGI of 65.5 µM.

As to `COc1ccc(OC)c(NC(=O)C(=O)NNC(=O)c2sc(NNC(C)=O)nc2C)c1`, the TGI in [1] was 52.1 µM; in assay [9], more than 100 µM; in assay [2] it was 90.3 µM; in assay [4] it was more than 100 µM; in assay [5], more than 100 µM; in assay [10] it was more than 100 µM. Also, the TGI was more than 100 µM in assay [7] and 61.5 µM in [8].

With `C=C(C)[C@@]12OC3(/C=C/C=C/CCCCC)O[C@@H]1[C@@H]1[C@@H]4O[C@]4(CO)[C@@H](O)[C@]4(O)C(=O)C(C)=C[C@H]4[C@@]1(O3)[C@H](C)[C@H]2OC(=O)c1ccccc1`, the GI50 is less than 0.01 µM in assay [1]; less than 0.01 µM in assay [9]; 1.87 µM in [3]; less than 0.01 µM in assay [4]; 1.92 µM in assay [5]; less than 0.0106 µM in assay [7]. The GI50 in assay [8] is 8.13 µM. Besides, the TGI in [9] was found to be 1.8 µM; in assay [3], 3.49 µM; in assay [4], 1.86 µM; in assay [5], 3.91 µM; in assay [7], 2.17 µM; in assay [8], 21.5 µM.

For `CCC[CH2][Sn]([CH2]CCC)([CH2]CCC)[O]C(=O)CC`, the GI50 in assay [1] is 0.12 µM; in assay [9], 0.171 µM; in assay [2] it was 0.163 µM; in assay [3] it was 0.14 µM; in assay [4], 0.139 µM; in assay [5], 0.169 µM. Further, the GI50 was 0.144 µM in [6], 0.161 µM in [7] and 0.145 µM in assay [8]. Moreover, the TGI in [1] worked out at 0.256 µM; in assay [9] it was 0.316 µM; in assay [2] it was 0.538 µM; in assay [3], 0.285 µM; in [4], 0.27 µM; in [5], 0.335 µM. Further, the TGI in assay [6] worked out at 0.349 µM; in [7], 0.305 µM; in [8] it was 0.296 µM.

As to `COCCOc1cc(F)c2c(Nc3ccc(NC(=O)Cn4cc(C(C)C)nn4)cc3)ncnc2c1`, the GI50 was more than 100 µM in [1]; more than 100 µM in assay [9]; more than 100 µM in assay [2]; 10.2 µM in [3]; 24.3 µM in assay [4]; 41 µM in [5]. Moreover, the GI50 in assay [6] is 28.2 µM; in assay [7] it was more than 100 µM; in [8] it was more than 100 µM. In addition, the TGI in [1], in assay [9], in [2], in [3], in [4] and in assay [5] was more than 100 µM throughout. Also, the TGI in assay [6], in assay [7] and in assay [8] was more than 100 µM each time.

As to `CCOP(=O)(Cc1ccc(CP(=O)(OCC)OCC)n1C)OCC`, the TGI in [9], in [2], in assay [3], in assay [4], in assay [5] and in assay [6] was more than 100 µM each time. Moreover, the TGI in [7] and in [8] was more than 100 µM each time.

For `Ic1ccc(Nc2nc3nonc3nc2Nc2ccc(I)cc2)cc1`, the GI50 was 0.0829 µM in assay [1]; 0.326 µM in assay [9]; 0.175 µM in [2]; 0.137 µM in [4]; 0.324 µM in [5]; 0.227 µM in assay [6]. Moreover, the results for the GI50 in assay [7] and in assay [8] were 0.321 µM and 0.2 µM, respectively. In addition, the TGI in assay [1] is 0.418 µM; in assay [9] it was more than 100 µM; in [2] it was 0.545 µM; in assay [4] it was 0.352 µM; in assay [5] it was more than 100 µM; in [6], more than 100 µM. In addition, the TGI in assay [7] was more than 100 µM; in assay [8], 0.772 µM.

In the case of `O=C(O)CNc1cc(-c2ccccc2)nc(NCC(=O)O)n1`, the TGI in [9], in [2], in assay [4], in [5], in assay [6] and in assay [10] was more than 100 µM in each case. In addition, the TGI in assay [7] and in assay [8] was more than 100 µM throughout.

In the case of `COC(=O)C1=C(C)N(NC(=O)c2ccccc2)C(C)(O)C12CCOC2=O` (centres undefined), the TGI in [1], in assay [9], in assay [2], in assay [5], in assay [7] and in assay [8] was more than 100 µM throughout.

On to `CCCCCCCCCC/C=C/CC(=O)SCCNC(=O)CCNC(=O)[C@@H](O)C(C)(C)COP(=O)(O)OP(=O)(O)OCC1OC(n2cnc3c(N)ncnc32)C(O)C1OP(=O)(O)O` (some centres undefined), for which the TGI in assay [1], in [9], in [2], in assay [3], in assay [4] and in assay [5] was more than 10 µM throughout. Besides, the TGI in [6], in assay [7] and in assay [8] was more than 10 µM each time.

Consider `Cc1ccc(S(=O)(=O)NCC2CCCCC2=O)cc1` (centres undefined), for which the TGI in [1] is more than 100 µM; in [2], more than 100 µM; in [3] it was more than 100 µM; in assay [4], more than 100 µM; in [5], more than 100 µM; in assay [6], 93.1 µM. Also, the results for the TGI in assay [7] and in assay [8] were more than 100 µM and 57.7 µM, respectively.

Turning to `Cc1c2cccnc2c(C)c2c1c1cc(CO)ccc1n2C`, the GI50 in assay [1] is 0.104 µM; in assay [9], 3.38 µM; in assay [3] it was 1.93 µM; in assay [4], 1.75 µM; in assay [5], 2.67 µM; in assay [7], 2.57 µM. Moreover, the GI50 in assay [8] is 1.51 µM. Also, the TGI in [1] is 0.243 µM; in [9] it was 13.9 µM; in assay [3], 5.5 µM; in assay [4], 5.12 µM; in assay [5], 14.6 µM; in [7], 7.77 µM. Further, the TGI in [8] is 4.25 µM.

For the molecule `CC(C)(C)OC(=O)NCC(=O)OCc1ccccc1`, the TGI in assay [1], in assay [9], in assay [2], in [5], in [6] and in assay [7] was more than 100 µM throughout. This molecule came in with a TGI in [8] of more than 100 µM.

For `S=C(N/N=C/c1ccco1)NC12CC3CC(CC(C3)C1)C2`, the TGI in assay [1], in assay [9], in assay [3], in assay [4], in [5] and in assay [6] was more than 100 µM each time. Further, the TGI in [7] and in [8] was more than 100 µM each time.

The record behind these values is PubChem BioAssay (NCI).
